{"source": "ChEMBL document CHEMBL5500331", "about": "“Discovery of novel peptide-dehydroepiandrosterone hybrids inducing endoplasmic reticulum stress with effective in vitro and in vivo anti-melanoma activities” (Eur J Med Chem, 2024)", "key": {"[1]": {"test_system": "B16", "experiment": "Induction of endoplasmic reticulum (ER) stress in mouse B16 cells assessed as increase in CHOP expression at 9.70 uM measured after 48 hrs by Western blot analysis", "assay_type": "functional, cell-based", "conditions": "dose 9.7 µM"}, "[2]": {"test_system": "B16", "experiment": "Antiproliferative activity against mouse B16 cells measured after 48 hrs by MTT assay", "assay_type": "functional, cell-based", "conditions": "B16, 48 h"}, "[3]": {"test_system": "B16", "experiment": "Induction of apoptosis in mouse B16 cells at 4.85 uM measured after 48 hrs by annexin-V/PI double staining based flow cytometry analysis", "assay_type": "functional, cell-based"}, "[4]": {"test_system": "B16", "experiment": "Upregulation of caspase 3 expression in mouse B16 cells at 9.70 uM measured after 48 hrs by Western blot analysis", "assay_type": "functional, cell-based", "conditions": "dose 9.7 µM"}, "[5]": {"test_system": "B16", "experiment": "Upregulation of caspase 8 expression in mouse B16 cells at 9.70 uM measured after 48 hrs by Western blot analysis", "assay_type": "functional, cell-based", "conditions": "dose 9.7 µM"}, "[6]": {"test_system": "B16", "experiment": "Upregulation of […] expression in mouse B16 cells at 9.70 uM measured after 48 hrs by Western blot analysis", "assay_type": "functional, cell-based", "conditions": "dose 9.7 µM"}, "[7]": {"test_system": "B16", "experiment": "Downregulation of Bcl-2 expression in mouse B16 cells at 9.70 uM measured after 48 hrs by Western blot analysis", "assay_type": "functional, cell-based", "conditions": "dose 9.7 µM"}, "[8]": {"test_system": "B16", "experiment": "Induction of endoplasmic reticulum (ER) stress in mouse B16 cells assessed as increase in […] expression at 9.70 uM measured after 48 hrs by Western blot analysis", "assay_type": "functional, cell-based", "conditions": "dose 9.7 µM"}, "[9]": {"test_system": "B16", "experiment": "Induction of endoplasmic reticulum (ER) stress in mouse B16 cells assessed as decrease in alix expression at 9.70 uM measured after 48 hrs by Western blot analysis", "assay_type": "functional, cell-based", "conditions": "dose 9.7 µM"}, "[10]": {"test_system": "B16", "experiment": "Induction of endoplasmic reticulum (ER) stress in mouse B16 cells assessed as appearance of damaged ER at 9.70 uM measured after 24 hrs by confocal microscopy based analysis", "assay_type": "functional, cell-based", "conditions": "dose 9.7 µM"}, "[11]": {"test_system": "B16", "experiment": "Induction of endoplasmic reticulum (ER) stress in mouse B16 cells assessed as appearance of vacuolated ER at 9.70 uM measured after 24 hrs by confocal microscopy based analysis", "assay_type": "functional, cell-based", "conditions": "dose 9.7 µM"}, "[12]": {"test_system": "B16", "experiment": "Induction of endoplasmic reticulum (ER) stress in mouse B16 cells assessed as fragmented distribution at 25 uM measured after 24 hrs by confocal microscopy based analysis", "assay_type": "functional, cell-based"}, "[13]": {"experiment": "Inhibition of cell migration in mouse B16 cells at 9.70 uM measured after 48 hrs by scratch-wound healing assay relative to control", "assay_type": "functional"}, "[14]": {"experiment": "Inhibition of cell migration in mouse B16 cells at 9.70 uM measured after 24 hrs by crystal violet staining based analysis relative to control", "assay_type": "functional"}, "[15]": {"experiment": "Inhibition of cell invasion in mouse B16 cells at 9.70 uM measured after 24 hrs by crystal violet staining based analysis relative to control", "assay_type": "functional"}, "[16]": {"experiment": "Toxicity in Kunming mouse assessed as effect on body weight at 60 mg/kg, IG measured after 21 days", "assay_type": "organism-based", "conditions": "in vivo, po, 504 h, time 21 day"}, "[17]": {"experiment": "Toxicity in Kunming mouse assessed as effect on body weight at 40 mg/kg, IG measured after 21 days", "assay_type": "organism-based", "conditions": "in vivo, po, 504 h, time 21 day"}, "[18]": {"experiment": "Toxicity in Kunming mouse assessed as effect on body weight at 80 mg/kg, IG measured after 21 days", "assay_type": "organism-based", "conditions": "in vivo, po, 504 h, time 21 day"}, "[19]": {"experiment": "Toxicity in Kunming mouse assessed as increase in survival rate at 60 mg/kg, IG measured after 27 days relative to control", "assay_type": "organism-based", "conditions": "in vivo, po, time 27 day"}, "[20]": {"experiment": "Toxicity in Kunming mouse assessed as increase in survival rate at 80 mg/kg, IG measured after 27 days relative to control", "assay_type": "organism-based", "conditions": "in vivo, po, time 27 day"}, "[21]": {"test_system": "B16", "experiment": "Anti-melanoma activity against mouse B16 cells xenografted in Kunming mouse model assessed as reduction in tumor volume at 40 to 80 mg/kg, IG measured after 5 days", "assay_type": "functional, organism-based", "conditions": "dose 40-80 mg/kg, time 5.0 day"}, "[22]": {"test_system": "B16", "experiment": "Anti-melanoma activity against mouse B16 cells xenografted in Kunming mouse model assessed as reduction in tumor volume at 60 to 80 mg/kg, IG measured after 7 to 27 days", "assay_type": "functional, organism-based", "conditions": "dose 60-80 mg/kg, time 7-27 day"}, "[23]": {"test_system": "B16", "experiment": "Anti-melanoma activity against mouse B16 cells xenografted in Kunming mouse model assessed as reduction in tumor volume at 40 mg/kg, IG measured after 7 to 27 days", "assay_type": "functional, organism-based", "conditions": "time 7-27 day"}, "[24]": {"test_system": "B16", "experiment": "Anti-melanoma activity against mouse B16 cells xenografted in Kunming mouse model assessed as reduction in tumor volume at 60 to 80 mg/kg, IG measured after 11 days relative to control", "assay_type": "functional", "design": "scale not given: the % may be the effect or the level left", "conditions": "dose 60-80 mg/kg, time 11 day"}, "[25]": {"test_system": "B16", "experiment": "Anti-melanoma activity against mouse B16 cells xenografted in Kunming mouse model assessed as reduction in tumor volume at 40 mg/kg, IG measured after 19 days", "assay_type": "functional, organism-based", "conditions": "time 19.0 day"}, "[26]": {"test_system": "B16", "experiment": "Anti-melanoma activity against mouse B16 cells xenografted in Kunming mouse model assessed as suppression of tumor weight at 60 mg/kg, IG measured every two days for 27 days (reference value: 10.61+/-1.05g)", "assay_type": "functional", "conditions": "time 27 day"}, "[27]": {"test_system": "B16", "experiment": "Anti-melanoma activity against mouse B16 cells xenografted in Kunming mouse model assessed as suppression of tumor weight at 80 mg/kg, IG measured every two days for 27 days (reference value: 10.61+/-1.05g)", "assay_type": "functional", "conditions": "time 27 day"}, "[28]": {"test_system": "B16", "experiment": "Anti-melanoma activity against mouse B16 cells xenografted in Kunming mouse model assessed as inhibition of tumor weight at 60 mg/kg, IG measured every two days for 27 days relative to control", "assay_type": "functional", "design": "scale not given: the % may be the effect or the level left", "conditions": "time 27 day"}, "[29]": {"test_system": "B16", "experiment": "Anti-melanoma activity against mouse B16 cells xenografted in Kunming mouse model assessed as inhibition of tumor weight at 80 mg/kg, IG measured every two days for 27 days relative to control", "assay_type": "functional", "design": "scale not given: the % may be the effect or the level left", "conditions": "time 27 day"}, "[30]": {"test_system": "B16", "experiment": "Anti-melanoma activity against mouse B16 cells xenografted in Kunming mouse model assessed as inhibition of tumor weight at 40 mg/kg, IG measured every two days for 27 days relative to control", "assay_type": "functional", "design": "scale not given: the % may be the effect or the level left", "conditions": "time 27 day"}, "[31]": {"test_system": "B16", "experiment": "Anti-melanoma activity against mouse B16 cells xenografted in Kunming mouse model assessed as suppression of tumor weight at 40 mg/kg, IG measured every two days for 27 days (reference value: 10.61+/-1.05g)", "assay_type": "functional", "conditions": "time 27 day"}, "[32]": {"test_system": "B16", "experiment": "Anti-melanoma activity against mouse B16 cells xenografted in Kunming mouse model assessed as increase in caspase 3 expression at 40 to 60 mg/kg, IG measured after 27 days by IHC staining based analysis", "assay_type": "functional, organism-based", "conditions": "dose 40-60 mg/kg, time 27.0 day"}, "[33]": {"test_system": "B16", "experiment": "Anti-melanoma activity against mouse B16 cells xenografted in Kunming mouse model assessed as increase in caspase 8 expression at 40 to 60 mg/kg, IG measured after 27 days by IHC staining based analysis", "assay_type": "functional, organism-based", "conditions": "dose 40-60 mg/kg, time 27.0 day"}, "[34]": {"test_system": "B16", "experiment": "Anti-melanoma activity against mouse B16 cells xenografted in Kunming mouse model assessed as increase in bax expression at 40 to 60 mg/kg, IG measured after 27 days by IHC staining based analysis", "assay_type": "functional, organism-based", "conditions": "dose 40-60 mg/kg, time 27.0 day"}, "[35]": {"test_system": "B16", "experiment": "Anti-melanoma activity against mouse B16 cells xenografted in Kunming mouse model assessed as decrease in bcl-2 level at 40 to 60 mg/kg, IG measured after 27 days by IHC staining based analysis", "assay_type": "functional, organism-based", "conditions": "dose 40-60 mg/kg, time 27.0 day"}, "[36]": {"experiment": "Antiproliferative activity against human Prostate tumor cell line at 25 uM measured after 48 hrs by MTT assay relative to control", "assay_type": "functional"}, "[37]": {"experiment": "Drug metabolism in mouse plasma assessed as abiraterone Cmax at 20 mg/kg, IG", "assay_type": "ADME, organism-based", "conditions": "in vivo, po"}, "[38]": {"experiment": "Drug metabolism in mouse plasma assessed as abiraterone Tmax at 20 mg/kg, IG", "assay_type": "ADME, organism-based", "conditions": "in vivo, po"}}, "note": "Active and inactive are the calls of the source. No cut-off for these calls is given here."}
{"smiles": "CC(C)[C@H](NC(=O)CN)C(=O)O[C@H]1CC[C@@]2(C)C(=CC[C@@H]3[C@@H]2CC[C@]2(C)C(c4cccnc4)=CC[C@@H]32)C1", "values": [{"measurement": "Activity", "setting": "[1]", "result": "Active"}, {"measurement": "IC50", "setting": "[2]", "result": 9.7, "unit": "µM"}, {"measurement": "Activity", "setting": "[3]", "result": "Active"}, {"measurement": "Activity", "setting": "[4]", "result": "Active"}, {"measurement": "Activity", "setting": "[5]", "result": "Active"}, {"measurement": "Activity", "setting": "[6]", "result": "Active"}, {"measurement": "Activity", "setting": "[7]", "result": "Active"}, {"measurement": "Activity", "setting": "[8]", "result": "Active"}, {"measurement": "Activity", "setting": "[9]", "result": "Active"}, {"measurement": "Activity", "setting": "[10]", "result": "Active"}, {"measurement": "Activity", "setting": "[11]", "result": "Active"}, {"measurement": "Activity", "setting": "[12]", "result": "Active"}, {"measurement": "inhibition at 9.7 µM", "setting": "[13]", "result": 66, "unit": "%"}, {"measurement": "inhibition at 9.7 µM", "setting": "[14]", "result": 70, "unit": "%"}, {"measurement": "inhibition at 9.7 µM", "setting": "[15]", "result": "~65", "unit": "%"}, {"measurement": "Activity", "setting": "[16]", "result": "Non-Toxic"}, {"measurement": "Activity", "setting": "[17]", "result": "Toxic"}, {"measurement": "Activity", "setting": "[18]", "result": "Non-Toxic"}, {"measurement": "survival at 648 h", "setting": "[19]", "result": 100, "unit": "%"}, {"measurement": "survival at 648 h", "setting": "[20]", "result": 100, "unit": "%"}, {"measurement": "Activity", "setting": "[21]", "result": "Active"}, {"measurement": "Activity", "setting": "[22]", "result": "Active"}, {"measurement": "Activity", "setting": "[23]", "result": "inactive"}, {"measurement": "Activity", "setting": "[24]", "result": 100, "unit": "%"}, {"measurement": "Activity", "setting": "[25]", "result": "Active"}, {"measurement": "Activity", "setting": "[26]", "result": 0.1, "unit": "g"}, {"measurement": "Activity", "setting": "[27]", "result": 0.23, "unit": "g"}, {"measurement": "Activity", "setting": "[28]", "result": 98.12, "unit": "%"}, {"measurement": "Activity", "setting": "[29]", "result": 99.06, "unit": "%"}, {"measurement": "Activity", "setting": "[30]", "result": 83.96, "unit": "%"}, {"measurement": "Activity", "setting": "[31]", "result": 1.7, "unit": "g"}, {"measurement": "Activity", "setting": "[32]", "result": "Active"}, {"measurement": "Activity", "setting": "[33]", "result": "Active"}, {"measurement": "Activity", "setting": "[34]", "result": "Active"}, {"measurement": "Activity", "setting": "[35]", "result": "Active"}, {"measurement": "Activity", "setting": "[36]", "result": 13.6, "unit": "%"}, {"measurement": "Cmax", "setting": "[37]", "result": 0.0558, "unit": "µg/mL"}, {"measurement": "Tmax", "setting": "[38]", "result": 8, "unit": "h"}]}
